Data taken from ChEMBL document CHEMBL1201862, “PubChem BioAssay data set” (2004).
Activity calls are given as the source filed them.

Columns and labels:
[1] = biological target: T1, Cytochrome P450 1A2 (Homo sapiens, UniProt P05177);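 note: PubChem cytochrome P450 panel assay, CYP1A2 panel member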
T1 sequence (P05177 whole entry): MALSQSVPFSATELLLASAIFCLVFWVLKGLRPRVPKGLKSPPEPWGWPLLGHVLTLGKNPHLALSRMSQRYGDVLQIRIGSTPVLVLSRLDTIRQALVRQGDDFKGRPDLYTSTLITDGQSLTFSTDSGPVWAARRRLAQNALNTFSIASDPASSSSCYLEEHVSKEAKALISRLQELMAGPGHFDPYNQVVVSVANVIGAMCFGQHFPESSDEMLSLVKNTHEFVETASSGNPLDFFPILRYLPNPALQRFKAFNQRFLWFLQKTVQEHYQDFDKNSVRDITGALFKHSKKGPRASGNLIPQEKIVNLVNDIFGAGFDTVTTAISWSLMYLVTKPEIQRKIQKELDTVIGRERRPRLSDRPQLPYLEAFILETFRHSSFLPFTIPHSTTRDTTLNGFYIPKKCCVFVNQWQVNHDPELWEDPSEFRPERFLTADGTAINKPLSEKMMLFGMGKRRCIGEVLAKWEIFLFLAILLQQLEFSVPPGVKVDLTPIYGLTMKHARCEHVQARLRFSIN

[2] = biological target: Cytochrome P450 3A4 (Homo sapiens, UniProt P08684);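 note: CYP3A4 tested as one member of a cytochrome P450 panel screen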
[3] = biological target: Cytochrome P450 2D6 (Homo sapiens, UniProt P10635);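 note: CYP2D6 member of a cytochrome P450 panel assay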
[4] = biological target: Cytochrome P450 2C19 (Homo sapiens, UniProt P33261); assay: Cytochrome panel assay with activity outcomes. Panel member name: p450-cyp2c19 Compounds with AC50 equal or less than 10 uM are considered active; type: functional; settings: read-out: AC50
[5] = biological target: Cytochrome P450 2C9 (Homo sapiens, UniProt P11712)
[6] = tested on: Streptococcus; assay: GAS UMAA2166 growth inhibition – luminescence, BacTiterGlo, counter-screen for streptokinase expression inhibitor project, dose response (AID 1915); type: functional, organism-based;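 note: potency for reduction of bacterial viability or growth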
[7] = tested on: Streptococcus sp. 'group A'; assay: Streptococcus pyogenes SK(-)GAS viability under kanamycin – luminescence, BacTiterGlo, confirmation, counter-screen for streptokinase expression inhibitor project, dose response (AID 1900); type: functional, organism-based
[8] = biological target: T2, Streptokinase A (Streptococcus pyogenes serotype M1, UniProt P10520); assay: viability-normalized secreted streptokinase activity reduction – plasminogen activation absorbance, OD405, dose response (AID 1914); type: functional, Streptococcus pyogenes M1 GAS;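 note: secreted streptokinase activity via plasminogen activation per viability signal from cell pellet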
T2 sequence (P10520 whole entry): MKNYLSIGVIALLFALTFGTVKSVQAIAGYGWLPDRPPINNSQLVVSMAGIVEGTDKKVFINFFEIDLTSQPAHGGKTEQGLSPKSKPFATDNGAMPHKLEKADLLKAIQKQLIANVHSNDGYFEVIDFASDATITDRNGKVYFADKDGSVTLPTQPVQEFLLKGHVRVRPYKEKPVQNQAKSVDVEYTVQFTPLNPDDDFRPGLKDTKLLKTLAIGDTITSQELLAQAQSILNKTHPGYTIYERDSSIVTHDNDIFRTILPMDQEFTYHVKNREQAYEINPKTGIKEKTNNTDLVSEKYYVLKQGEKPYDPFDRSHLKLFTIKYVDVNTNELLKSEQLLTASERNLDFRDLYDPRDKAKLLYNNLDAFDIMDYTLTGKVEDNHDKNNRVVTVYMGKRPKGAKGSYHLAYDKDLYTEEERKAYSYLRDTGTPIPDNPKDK

[9] = Luminescence Cell-Based Dose Retest to Confirm Inhibitors of Cancer Stem Cells. [Related pubchem assays (depositor defined):AID2717, AID2721]; type: functional; settings: Homo sapiens
[10] = biological target: T3, Heat shock factor protein 1 (Mus musculus, UniProt P38532); assay: decrease of HSF1-responsive luciferase luminescence – cell-based, NIH3T3, dose retest, confirmation (AID 2382); type: functional;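 note: NIH3T3 fibroblasts with HSF1-driven luciferase reporter stressed by proteasome inhibitor MG132; luminescence from HSF1-driven luciferase expression after 8 hours of MG132 stress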
T3 sequence (P38532 whole entry): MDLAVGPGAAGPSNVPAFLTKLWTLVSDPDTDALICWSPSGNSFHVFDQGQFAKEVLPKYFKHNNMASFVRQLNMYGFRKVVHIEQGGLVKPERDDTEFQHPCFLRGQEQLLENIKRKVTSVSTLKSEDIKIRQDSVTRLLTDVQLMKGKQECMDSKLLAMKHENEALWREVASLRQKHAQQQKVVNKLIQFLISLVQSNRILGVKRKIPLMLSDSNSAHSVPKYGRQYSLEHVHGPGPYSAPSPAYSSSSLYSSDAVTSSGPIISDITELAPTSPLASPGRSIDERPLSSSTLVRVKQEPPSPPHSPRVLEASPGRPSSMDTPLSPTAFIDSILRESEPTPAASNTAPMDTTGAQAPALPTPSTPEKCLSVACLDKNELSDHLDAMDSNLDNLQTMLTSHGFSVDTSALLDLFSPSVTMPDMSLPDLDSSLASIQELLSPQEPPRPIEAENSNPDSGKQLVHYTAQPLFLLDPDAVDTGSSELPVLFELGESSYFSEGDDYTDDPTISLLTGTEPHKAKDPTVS

Chain of Cytochrome P450 2C19 (P33261 whole entry): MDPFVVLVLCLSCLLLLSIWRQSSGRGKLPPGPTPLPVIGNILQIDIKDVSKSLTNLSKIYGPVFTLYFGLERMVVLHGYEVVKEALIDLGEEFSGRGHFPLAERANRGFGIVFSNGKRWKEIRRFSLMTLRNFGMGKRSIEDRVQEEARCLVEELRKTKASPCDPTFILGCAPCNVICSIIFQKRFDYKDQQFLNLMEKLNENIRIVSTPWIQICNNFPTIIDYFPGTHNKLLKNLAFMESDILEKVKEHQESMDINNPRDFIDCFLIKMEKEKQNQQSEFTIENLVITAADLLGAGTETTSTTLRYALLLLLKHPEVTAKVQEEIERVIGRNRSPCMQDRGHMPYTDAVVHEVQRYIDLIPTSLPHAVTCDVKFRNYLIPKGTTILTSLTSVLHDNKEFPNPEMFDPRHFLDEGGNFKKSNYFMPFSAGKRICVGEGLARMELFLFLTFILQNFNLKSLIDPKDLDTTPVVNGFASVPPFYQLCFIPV
Chain of Cytochrome P450 3A4 (P08684 whole entry): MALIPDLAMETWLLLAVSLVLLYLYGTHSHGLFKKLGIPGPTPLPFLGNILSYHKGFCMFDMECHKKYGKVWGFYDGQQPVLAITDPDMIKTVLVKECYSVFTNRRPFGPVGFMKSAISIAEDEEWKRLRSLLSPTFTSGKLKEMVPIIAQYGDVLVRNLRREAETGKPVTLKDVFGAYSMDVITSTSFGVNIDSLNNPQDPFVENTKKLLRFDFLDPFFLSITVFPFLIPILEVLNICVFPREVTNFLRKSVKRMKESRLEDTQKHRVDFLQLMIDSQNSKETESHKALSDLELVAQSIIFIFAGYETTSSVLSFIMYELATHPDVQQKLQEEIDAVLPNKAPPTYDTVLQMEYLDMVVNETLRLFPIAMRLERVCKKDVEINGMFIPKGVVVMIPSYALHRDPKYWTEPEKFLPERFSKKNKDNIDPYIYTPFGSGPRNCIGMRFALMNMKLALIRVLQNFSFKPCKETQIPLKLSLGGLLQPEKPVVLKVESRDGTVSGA
Chain of Cytochrome P450 2C9 (P11712 whole entry): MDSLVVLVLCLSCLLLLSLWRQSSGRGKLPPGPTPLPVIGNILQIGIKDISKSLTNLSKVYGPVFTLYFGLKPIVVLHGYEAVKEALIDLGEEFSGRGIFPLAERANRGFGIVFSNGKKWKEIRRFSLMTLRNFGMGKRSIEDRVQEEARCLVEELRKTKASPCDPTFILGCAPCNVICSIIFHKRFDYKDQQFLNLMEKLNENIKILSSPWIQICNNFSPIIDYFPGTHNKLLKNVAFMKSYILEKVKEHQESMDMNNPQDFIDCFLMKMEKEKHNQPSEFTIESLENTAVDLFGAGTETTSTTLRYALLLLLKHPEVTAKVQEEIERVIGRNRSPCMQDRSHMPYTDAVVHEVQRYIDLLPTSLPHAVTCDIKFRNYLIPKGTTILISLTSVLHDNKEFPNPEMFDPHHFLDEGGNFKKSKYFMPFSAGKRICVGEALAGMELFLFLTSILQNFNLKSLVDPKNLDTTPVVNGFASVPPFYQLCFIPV
Chain of Cytochrome P450 2D6 (P10635 whole entry): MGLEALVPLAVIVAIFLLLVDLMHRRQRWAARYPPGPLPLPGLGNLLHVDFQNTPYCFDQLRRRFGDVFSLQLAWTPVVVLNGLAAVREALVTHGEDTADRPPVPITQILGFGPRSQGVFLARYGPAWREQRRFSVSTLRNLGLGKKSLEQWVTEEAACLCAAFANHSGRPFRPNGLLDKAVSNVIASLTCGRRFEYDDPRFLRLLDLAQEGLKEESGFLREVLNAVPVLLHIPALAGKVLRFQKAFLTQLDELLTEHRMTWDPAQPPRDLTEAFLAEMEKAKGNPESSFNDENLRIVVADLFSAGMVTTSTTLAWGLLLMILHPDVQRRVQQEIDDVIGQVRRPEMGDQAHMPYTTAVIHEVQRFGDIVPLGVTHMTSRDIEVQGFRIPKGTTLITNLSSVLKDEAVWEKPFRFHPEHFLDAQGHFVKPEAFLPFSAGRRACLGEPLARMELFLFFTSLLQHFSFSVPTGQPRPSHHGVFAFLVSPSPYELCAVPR

For `COC(=O)[C@@]1(Cc2ccccc2)[C@H]2c3cc(C(=O)N4CCCC4)n(Cc4c(CO)ncc(C)c4O)c3C[C@H]2CN1C(=O)c1ccccc1`, which AC50 [1] is on record?
The AC50 was 5.01 µM (inconclusive).

For `CO/N=C/C(=C\Nc1ccccc1)c1ncc(C(F)(F)F)cc1Cl`, which AC50 [2] is on record?
The AC50 was 22.4 µM (inconclusive).

Which AC50 [3] does the source give for `CC(=O)Nc1cccc(C(=O)OC(C(=O)c2ccc(C)c(C)c2)c2ccccc2)c1` (stereo not given) here?
The AC50 was 17.8 µM (inconclusive).

And the AC50 [1]?
The AC50 was 22.4 µM (inconclusive).

For `NNC(=O)c1nn(-c2ccc(Cl)cc2)ccc1=O`, which AC50 [2] is on record?
Its AC50 is 25.1 µM (inconclusive).

With `CCC12C=CCN3CCC4(c5cc(Br)c(OC)cc5N(C)C4C(O)(C(=O)OC)C1OC(C)=O)C32` (stereo not given) as the compound, how does the AC50 [4] read?
Its AC50 is 11.2 µM (inconclusive).

And the AC50 [5]?
The AC50 was 22.4 µM (inconclusive).

What about the AC50 [2] of the same compound?
Its AC50 is 39.8 µM (inconclusive).

What does the source list for `Cc1ccccc1C(=O)Oc1cccc(Nc2ncnc3ccccc23)c1`?
EC50 [6]: > 150 µM (not active); EC50 [7]: 5.76 µM (active); EC50 [8]: 34.6 µM (active)

For `COc1ccc(/C=N/NC(=O)CCc2ccccc2)cc1O`, which AC50 [4] is on record?
The AC50 was 15.8 µM (inconclusive).

And the AC50 [2]?
The AC50 was 22.4 µM (inconclusive).

Which AC50 [9] does the source give for `Oc1nc(Nc2cccc(Cl)c2)sc1/C=C1\C=Nc2ccccc21` here?
The AC50 was 1.91 µM (active).

With `OCCCNc1nc(-c2ccccc2)c2cc(Br)ccc2n1` as the compound, how does the AC50 [9] read?
Its AC50 is 24 µM (active).

What does the source list for `COc1ccccc1N1CCN(C(=O)/C=C/c2c(Cl)nc3ccccn23)CC1`?
EC50 [6]: 12.7 µM (active); EC50 [7]: 1.25 µM (active); EC50 [8]: > 150 µM (not active)

With `Cc1ccccc1NS(=O)(=O)c1ccc2ncc(C(=O)N(C)Cc3ccco3)c(O)c2c1` as the compound, how does the AC50 [2] read?
The AC50 was 0.794 µM (inconclusive).

What about the AC50 [3] of the same compound?
The AC50 was 17.8 µM (inconclusive).

Which AC50 [9] does the source give for `COc1cccc(-c2sc3ccc(OC)cc3c2C#CC2(O)CCCCC2)c1` here?
Its AC50 is 3.74 µM (active).

For `Cc1ccc(CCN2CC(C(=O)N3CCC4(CC3)OCCO4)CC2=O)cc1` (stereo not given), which AC50 [5] is on record?
The AC50 was 12.6 µM (inconclusive).

And the AC50 [2]?
The AC50 was 17.8 µM (inconclusive).

Which AC50 [9] does the source give for `COc1ccc(-c2cc([C@H]3[C@@H]4C=CCC[C@@]4(C)C(=O)N3Cc3ccccc3)ccc2F)cc1OC` here?
Its AC50 is 3.92 µM (active).

For `COc1cc(C(=O)NC(=S)Nc2ccc(Cc3ccncc3)cc2)cc(OC)c1OC`, which EC50 [6] is on record?
Its EC50 is 25 µM (active).

What about the EC50 [7] of the same compound?
The EC50 was 2.84 µM (active).

And the EC50 [8]?
Its EC50 is > 150 µM (not active).

With `CCOC(=O)c1sc2c(c1C)c(=O)c(C(=O)OCC)cn2CC` as the compound, how does the AC50 [1] read?
The AC50 was 25.1 µM (inconclusive).

Which AC50 [9] does the source give for `CCCC(c1nnnn1CC1CCCO1)N1CCN(c2cc(Cl)ccc2C)CC1` (stereo not given) here?
Its AC50 is 3.53 µM (active).

For `CCNc1ncc2nc(-c3ccc(Cl)cc3)c(=O)n(-c3ccccc3)c2n1`, which AC50 [1] is on record?
Its AC50 is 1 µM (inconclusive).

Which EC50 [6] does the source give for `CC(C)(C)c1cc(C(=O)Nc2ccc(F)cc2)n(Cc2ccc(F)cc2)n1` here?
Its EC50 is 10.3 µM (active).

And the EC50 [7]?
Its EC50 is 7.02 µM (active).

And the EC50 [8]?
Its EC50 is 2.85 µM (active).

With `CCOc1ccc(-c2nnc3ccc(SCC(=O)NCc4ccco4)nn23)cc1` as the compound, how does the AC50 [4] read?
The AC50 was 1 µM (inconclusive).

And the AC50 [2]?
The AC50 was 7.94 µM (inconclusive).

What about the AC50 [1] of the same compound?
The AC50 was 15.8 µM (inconclusive).

What does the source list for `COc1ccc(NC(=O)CSc2nncn2C)c([N+](=O)[O-])c1`?
AC50 [5]: 14.1 µM (inconclusive); AC50 [2]: 22.4 µM (inconclusive)

Which AC50 [9] does the source give for `O=C1C2C(c3ccccc3)CC=CC2[C@H](c2ccc(C(F)(F)F)cc2)N1Cc1ccccc1` (stereo not given in full) here?
The AC50 was 5.21 µM (active).

With `CCCCOC(=O)CSCC(=O)Nc1cc(C)on1` as the compound, how does the AC50 [5] read?
The AC50 was 2.51 µM (inconclusive).

What about the EC50 [10] of the same compound?
Its EC50 is > 195 µM (not active).

And the AC50 [1]?
Its AC50 is 25.1 µM (inconclusive).

For `COc1ccc(CNCC(O)(c2ccc(Cl)cc2)c2ccc(Cl)cc2)cc1`, which EC50 [6] is on record?
Its EC50 is 17.9 µM (active).

And the EC50 [7]?
The EC50 was 3.01 µM (active).

And the EC50 [8]?
The EC50 was 19.7 µM (active).
